Experimental data from US20240342168A1, “SMALL MOLECULE INHIBITORS FOR ANTI-CANCER COMBINATION THERAPY” (UNIVERSITY OF CAPE TOWN, priority 2021, published 2024).

How the values were obtained:
Type in all cases: cell-based
[1] = system: HeLa cells; test: Drug washout experiments (MTT)
Procedure: Cells were plated in 96-well plates and subjected to 2 h INI-43 pre-treatment followed by cisplatin treatment, with or without removing INI-43 from the media, for 48 h. Following treatment, MTT (Sigma) was added and 4 h later crystals solubilized using 10% SLS in 0.01 M HCl.

[2] = system: HeLa cells; test: PARP cleavage by Western blot
Procedure: (§1) For protein extraction, cells were washed with PBS and lysed using RIPA buffer (50 mM Tris-CI, pH 7.4, 150 mM NaCl, 1% (w/v) sodium deoxycholate, 0.1% (v/v) SDS, 1% (v/v) Triton X-100, 2 mM EGTA, 2 mM EDTA, 50 mM NaF, 5 mM Na2P2O7, 1× complete protease inhibitor cocktail (Roche) and 0.1 M Sodium Orthovanadate). For PARP cleavage analysis, dead cells were collected by centrifugation and combined with live cell lysates. Lysates were sonicated, centrifuged, and the supernatant quantified using the BCA Protein Assay Kit (Pierce, Thermo Scientific) according to the manufacturer's instructions. Proteins were subjected to Western blot analysis using the following antibodies: rabbit anti-Kpnβ1 (H-300, sc-11,367, Santa Cruz), rabbit anti-β-tubulin (H-235, sc-9104, Santa Cruz), rabbit anti-PARP1/2 antibody (H-250, sc-7150, Santa Cruz), mouse anti-GAPDH (0411, sc-47,724, Santa Cruz), rabbit anti-p21 (H-164, sc-756, Santa Cruz), rabbit anti-Mcl-1 (H-260, sc-20,679, Santa Cruz), mouse anti-cyclin D1 (HD11, sc-246, Santa Cruz), rabbit anti-c-Myc (N-262, sc-764, Santa Cruz), mouse anti-p53 (DO-7, M7001, DakoCytomation), mouse anti-XIAP (610,763, BD Biosciences), and rabbit anti-phospho-Histone H2AX (γH2AX, Ser139, 20E3, #9718, Cell Signal).

[3] = system: SiHa cells; test: PARP cleavage by Western blot
Procedure: as §1

[4] = system: HeLa; test: Combination index (CI) determination, Chou-Talalay method; conditions: HeLa cervical cancer cell line
Procedure: (§2) To elucidate the nature of the combined use of INI-43 and cisplatin, the Chou-Talalay method was adopted (Chou T C, Talalay P. Quantitative analysis of dose-effect relationships: the combined effects of multiple drugs or enzyme inhibitors. Adv Enzym Regul. 1984; 22:27-55). Cell viability was determined after 48-h treatment at fixed INI-43 to cisplatin ratios of 1:3, 1:4 and 1:5 (Table 1 below). Cell viability was converted to fraction affected (Fa) and CI calculated using CompuSyn software (ComboSyn, Inc.).

[5] = system: Kyse 30; test: as above; conditions: Kyse 30 oesophageal cancer cell line
Procedure: as §2

[6] = system: Mel 80; test: as above; conditions: Mel 80 cervical cancer cell line
Procedure: as §2

[7] = system: SiHa cells; test: as above; conditions: INI-43 to cisplatin ratios 1:3, 1:4 and 1:5, at Fa>0.2, 2 h pre-incubation, 48 h
Procedure: as §2

[8] = system: WHC05; test: as above; conditions: WHC05 oesophageal cancer cell line
Procedure: as §2

[9] = system: p53 reporter activity in SiHa cells; test: p53-luciferase reporter assay
Procedure: (§3) SiHa cells were transfected with 100 ng p65-luciferase reporter construct (containing five copies of the p65-binding site, Promega) or 200 ng p53-luciferase reporter construct (containing thirteen wildtype p53 binding sites, Addgene plasmid #16442, Addgene Plasmid Repository (el-Deiry W S, Tokino T, Velculescu V E, Levy D B, Parsons R, Trent J M, et al. WAF1, a potential mediator of p53 tumor suppression. Cell. 1993; 75(4):817-25) and 10 ng pRL-TK (encoding Renilla luciferase, Promega), using Genecellin transfection reagent (Celtic Molecular Diagnostics). The following day cells were treated with 5 μM INI-43 for 2 h, followed by 30 μM cisplatin for 24 h, and luciferase activity assayed using the Dual-Luciferase Report assay system (Promega), according to the manufacturer's instructions. Luciferase readings were measured using the Veritas™ microplate luminometer (Promega) and normalised to Renilla luciferase from the same extract.

[10] = system: p65 reporter activity in SiHa cells; test: p65-luciferase reporter assay; conditions: pre-treated with INI-43 then cisplatin
Procedure: as §3

[11] = system: NFκB-p50 and NFκB-p65 in SiHa cells; test: Immunofluorescence of NFκB nuclear localization
Procedure: SiHa cells were plated on glass coverslips and treated for 24 h before fixation with 4% paraformaldehyde. Cells were permeabilised using 0.5% Triton-X-100/PBS and blocked using 1% BSA/PBST with 0.3 M Glycine. Primary antibody incubations were performed in 1% BSA/PBST, followed by secondary antibody incubation (Cy3 conjugated goat anti-rabbit, Jackson ImmunoResearch). Cell nuclei were counterstained with 0.5 μg/mL DAPI, and images captured using the Zeiss inverted fluorescence microscope under 100× oil immersion.

[12] = system: cyclin D1, c-Myc and XIAP; test: Western blot of NFκB targets; conditions: INI-43-cisplatin combination vs single cisplatin, concentration dependent
Procedure: as §1

[13] = INI-43 pre-treatment plus cisplatin

Structure (SMILES): CN(C)CCCn1c(N)c(-c2nc3ccccc3[nH]2)c2nc3ccccc3nc21 [INI-43]
- cell viability, combination treatment vs cisplatin alone after INI-43 washout ([1]; 2 h INI-43, removed before cisplatin treatment (washout 1 and 2), 48 h): significantly reduced cell viability
- enhancement of cell death upon combination treatment after INI-43 washout ([1]; HeLa cells, vs INI-43 still present): slightly reduced
- apoptosis (PARP cleavage), INI-43 on its own ([2]; 5 μM INI-43): negligible apoptosis
- PARP cleavage, combination treated vs cisplatin only [2, 13]: enhanced PARP cleavage
- apoptosis (PARP cleavage), INI-43 on its own ([3]; 5 μM INI-43): negligible apoptosis
- PARP cleavage, combination treated vs cisplatin only [3, 13]: enhanced PARP cleavage
- nature of INI-43 and cisplatin combination (CI) [4]: synergism
- nature of INI-43 and cisplatin combination (CI) [5]: synergism
- nature of INI-43 and cisplatin combination (CI) [6]: synergism
- combination index (CI) values [7]: below 1
- nature of INI-43 and cisplatin combination (CI) [8]: synergism
- p53 reporter activity ([9]; 5 μM INI-43 alone, 24 h): small but significant increase
- p53 reporter activity ([9]; INI-43 pre-treatment plus cisplatin vs cisplatin alone): significantly increased
- cisplatin-induced increase in p65 activity [10]: reduced
- nuclear fluorescence relative to cytoplasmic fluorescence (Fc (Nu/Cy)) ([11]; INI-43-cisplatin CT vs cisplatin): significantly reduced this effect
- cisplatin-induced nuclear translocation of NFκB-p50 and NFκB-p65 [11, 13]: prevented this nuclear translocation
- levels of cyclin D1, c-Myc and XIAP [12]: all reduced
